Reference: patent US20110021572A1, “FUNGICIDE HYDROXIMOYL-TETRAZOLE DERIVATIVES” (priority 2008, published 2011)
Read-outs that look alike come from different tables or passages of the source.

Tests used:
[1] = Measurement of logP values by HPLC on reversed phase columns (EEC directive 79/831 Annex V.A8); assay type: physicochemical
Phytophthora infestans = assay type: in vivo; conditions: tomato plants, preventive, 500 ppm of active ingredient, evaluated 7 days after inoculation
Plasmopara viticola = test: Plasmopara test (grapevines)/protective; assay type: in vivo; conditions: protective, 100 ppm of active ingredient, evaluated 6 days after inoculation
Description: To test for protective activity, young plants are sprayed with the preparation of active compound at the stated rate of application. After the spray coating has dried on, the plants are inoculated with an aqueous spore suspension of Plasmopara viticola and then remain for 1 day in an incubation cabinet at approximately 20° C. and a relative atmospheric humidity of 100%. The plant is subsequently placed for 4 days in a greenhouse at approximately 21° C. and a relative atmospheric humidity of approximately 90%. The plants are then misted and placed for 1 day in an incubation cabinet.

| Compound | chromatographic logP ([1]; HPLC, pH 2.7, 0.1% formic acid, reported in preparation examples, read-out: logP(HCOOH)) | efficacy (Phytophthora infestans) [%] | efficacy (Plasmopara viticola) [%] | chromatographic logP ([1]; pH 2.7) |
| --- | --- | --- | --- | --- |
| CCCCCOC(=O)Nc1cccnc1CON=C(c1ccccc1)c1nnnn1C [Example 2, pentyl {2-[({[(1-methyl-1H-tetrazol-5-yl)(phenyl)methylene]amino}oxy)methyl]pyridin-3-yl}carbamate] | 3.53 | ≥ 70 | ≥ 70 |  |
| Cn1nnnc1C(=NOCc1ncccc1N1C(=O)c2ccccc2C1=O)c1ccccc1 [Example 13, 2-{2-[({[(1-methyl-1H-tetrazol-5-yl)(phenyl)methylene]amino}oxy)methyl]pyridin-3-yl}-1H-isoindole-1,3(2H)-dione] |  |  |  | 2.63 |
| Cn1nnnc1C(=NOCc1ncccc1N)c1ccccc1 [Example 14, 2-[({[(1-methyl-1H-tetrazol-5-yl)(phenyl)methylene]amino}oxy)methyl]pyridin-3-amine] |  |  |  | 1.01 |
